Experimental data as given in US10946383B2, “Oligonucleotide encoded chemical libraries” (Plexium, Inc., priority 2017, dated 2021).

Target: Cathepsin-D protease (Homo sapiens, UniProt P07339)
Experiment: Cathepsin-D protease inhibition assay in picowells with bead-released compound and Peptide Q-Fluor substrate
Format: biochemical
Conditions: compound released from 10 μm TentaGel beads by UV (365 nm, 77 J/cm^2) to approximately 13 μM; 30 min, 37° C.

Cathepsin-D protease, sequence (P07339 65-412): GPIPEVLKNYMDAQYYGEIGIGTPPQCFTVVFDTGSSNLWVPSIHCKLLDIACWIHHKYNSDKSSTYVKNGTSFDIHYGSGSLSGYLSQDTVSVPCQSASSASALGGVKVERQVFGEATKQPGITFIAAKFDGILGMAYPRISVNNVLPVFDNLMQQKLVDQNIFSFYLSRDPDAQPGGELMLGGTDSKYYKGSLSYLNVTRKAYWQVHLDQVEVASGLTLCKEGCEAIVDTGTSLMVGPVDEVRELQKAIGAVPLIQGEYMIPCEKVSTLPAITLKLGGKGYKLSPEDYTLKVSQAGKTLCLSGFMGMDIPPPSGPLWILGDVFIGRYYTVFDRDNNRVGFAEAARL

Compound: CC(C)[C@H](NC(=O)OCC1c2ccccc2-c2ccccc21)C(=O)O [negative control beads, Fmoc-Valine]
- Cathepsin-D inhibition (fluorescence of cleaved Peptide Q-Fluor substrate): no Cathepsin-D inhibition
